Data taken from US20120065152A1 (SHIRE LLC, priority 2010, published 2012).
Read-outs that look alike come from different tables or passages of the source.

Key:
rat GIT transit = assay: Charcoal propulsion test (gut motility) in rat; assay type: in vivo; settings: oral, 60 min before charcoal
Description: The effect of a drug on gut motility can be studied by means of the charcoal propulsion test.
The method used was based on that described by Takemori et al. (J. Pharmacol. Exp. Ther. 169:39, 1969). Test treatments were administered orally 60 minutes prior to an oral dose of a 10% suspension of charcoal in 2.5% gum Arabic (2 ml/kg). Twenty minutes after dosing with charcoal, the rats were sacrificed and the entire gastrointestinal tract was removed quickly and carefully. The distance that the charcoal meal had traveled toward the caecum was measured and expressed as a percentage of the total gut length.

a-2A adrenoceptor = biological target: T1, a-2A adrenoceptor (Homo sapiens, UniProt P08913); assay: a-2 adrenoceptor binding assay, [3H] RX821002 competition; settings: human recombinant CHO cells, [3H] RX821002 (1 nM)
T1 construct: expressed in transfected cells; host or cells: CHO cells
T1 sequence (P08913 1-465): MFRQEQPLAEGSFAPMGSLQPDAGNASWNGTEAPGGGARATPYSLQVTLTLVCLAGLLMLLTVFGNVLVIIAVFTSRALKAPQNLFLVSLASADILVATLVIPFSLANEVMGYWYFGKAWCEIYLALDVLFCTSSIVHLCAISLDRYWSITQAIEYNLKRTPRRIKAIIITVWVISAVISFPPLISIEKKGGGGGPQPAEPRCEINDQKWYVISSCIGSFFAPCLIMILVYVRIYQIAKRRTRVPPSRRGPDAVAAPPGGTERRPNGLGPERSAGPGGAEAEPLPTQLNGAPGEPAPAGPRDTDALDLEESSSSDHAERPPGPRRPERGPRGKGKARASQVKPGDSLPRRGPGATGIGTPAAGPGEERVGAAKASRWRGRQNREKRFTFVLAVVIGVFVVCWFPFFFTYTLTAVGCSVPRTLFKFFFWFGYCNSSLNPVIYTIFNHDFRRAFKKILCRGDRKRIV
Text: The activation of this receptor is responsible for its intended therapeutic effect. […] The binding assay methodology employed in this study followed that described by […] et al. (Eur. J. Pharmacol. 167:95-104, 1989) and used human recombinant CHO cells expressing a-2 adrenceptors. The competitive binding ligand was [3H]

[1] = Comparative bioavailability study of guanfacine in monkeys given guanfacine or guanfacine prodrug; assay type: in vivo, monkey
Description: Blood samples were taken at various times after administration and submitted to analysis for the parent drug and prodrug using a qualified LC-MS-MS assay. The following pharmacokinetic parameters derived from the plasma analytical data were determined using Win Nonlin;

Solubility = settings: Solubility
[2] = Microdose comparative bioavailability study in healthy adult subjects; assay type: in vivo; settings: both sexes, plasma, healthy human volunteers, oral, 100 µg free base
Description: Blood samples were withdrawn pre-dose and at 0.5, 1, 2, 3, 4, 5, 6, 8, 12, 16, 24, 32, and 48 hours post dose and submitted to analysis for the parent drug and prodrug using a validated LC-MS-MS assay. The following pharmacokinetic parameters derived from the plasma analytical data were determined;

[3] = Pharmacokinetics of guanfacine and prodrug in rat hepatic portal and tail veins after oral prodrug; assay type: in vivo; settings: 1 mg/kg
Text: The collection of blood from the hepatic portal vein following oral administration allows the analysis of absorbed prodrug and active drug levels prior to first pass metabolism in the liver. Systemic levels can be measured by sampling of blood from the tail vein. Rats were surgically prepared under isofluorane anaesthesia by attaching a silicon catheter to the portal vein then exteriorising it at the nape of the neck with a blood collection port attached. Oral doses of compound 3 were administered by gavage as a single bolus dose at a dose volume of 10 mL/kg. At each sampling time serial point blood samples (approximately 0.2 mL) were taken simultaneously from the lateral tail vein cannula and the hepatic portal cannula. After collection of the final blood sample each animal was killed by cervical dislocation. […] Pharmacokinetic parameters in portal and systemic plasma were derived by non-compartmental analysis (linear/logarithmic trapezoidal) using WinNonlin (Version 4.1) software.

Ki (a-2A adrenoceptor): > 10 µM
Cmax ([1]; monkey, plasma, po, 0.5 mg/kg): 0.93 ng/mL
Time after administration up to which systemic prodrug was detectable ([1]; monkeys, 0.5 mg/kg guanfacine free base equivalents): up to 24 hours
solubility (Solubility; DMSO, organic solvent or mixture, in DMSO): > 10000 µg/mL
solubility (Solubility; water, in water): < 1000 µg/mL
half-life ([2]; n = 4, read-out: t½, analyte Compound 3 (converted)): 57 ± 11.4 min
AUC(0-t) ([2]; read-out: AUC0-t, analyte Compound 3): 0.092 ± 0.043 ng·h/mL
Cmax ([2]; read-out: Cmax, analyte Compound 3): 0.089 ± 0.038 ng/mL
AUC ([3]; hepatic portal vein plasma, read-out: Hepatic portal vein Prodrug AUC): 397 ng·h/mL
Cmax ([3]; hepatic portal vein plasma, read-out: Hepatic portal vein Prodrug Cmax): 149 ng/mL
AUC ([3]; tail vein (systemic) plasma, read-out: Tail vein Prodrug AUC): 88.6 ng·h/mL
Cmax ([3]; tail vein (systemic) plasma, read-out: Tail vein Prodrug Cmax): 16.4 ng/mL
SMILES: CCOC(=O)NC(N)=NC(=O)Cc1c(Cl)cccc1Cl.Cl [Compound 3, {N′-[2-(2,6-Dichloro-phenyl)-acetyl]-guanidinocarbonyloxy}ethane Hydrochloride]
% inhibition of rat GIT transit (rat GIT transit; dose 00.1 mg/kg (guanfacine free base equivalents)): 15%
% inhibition of rat GIT transit (rat GIT transit; dose 00.3 mg/kg (guanfacine free base equivalents)): 56%
% inhibition of rat GIT transit (rat GIT transit; dose 100 mg/kg (guanfacine free base equivalents)): 57%
